Experimental data published in patent US11559231B2, “System and method for determining a discrimination index for fear-potentiated startle” (Rosalind Franklin University of Medicine and Science, priority 2018, dated 2023).
Structures can show the parent of a compound that is named as a salt.

Target: T1, OT receptors (OTR) in the BNSTdl (Rattus norvegicus, UniProt P70536)
T1 construct: OT (100 ng), OTA (200 ng), or ACSF (all in volume of 0.5 μl per side) was injected bilaterally into the BNSTdl; from tissue; host or cells: brain (dorsolateral bed nucleus of the stria terminalis) of live male Sprague-Dawley rats
T1 sequence (P70536 1-388): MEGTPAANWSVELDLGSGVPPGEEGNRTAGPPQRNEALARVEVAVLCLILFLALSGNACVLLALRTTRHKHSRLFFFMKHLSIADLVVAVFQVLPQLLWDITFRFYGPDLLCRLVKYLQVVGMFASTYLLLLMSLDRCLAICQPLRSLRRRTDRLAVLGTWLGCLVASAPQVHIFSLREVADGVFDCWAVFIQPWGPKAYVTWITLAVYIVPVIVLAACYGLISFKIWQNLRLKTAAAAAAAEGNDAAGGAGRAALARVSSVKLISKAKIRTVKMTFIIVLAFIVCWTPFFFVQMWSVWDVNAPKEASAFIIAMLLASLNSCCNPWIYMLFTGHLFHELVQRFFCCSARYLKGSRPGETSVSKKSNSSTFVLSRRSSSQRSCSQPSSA
Assay: Fear-potentiated startle (FPS): intra-BNSTdl OT or OTA before cued fear conditioning, then fear recall testing
Type: in vivo
Details: for TREATMENT effect on cued fear (percentage change of startle amplitude): OT 100 ng or OTA 200 ng bilateral intra-BNSTdl 10 min before fear conditioning, recall 24 h later in context B, P=0.0981; for TREATMENT effect on cued fear (percentage change of startle amplitude) / total discrimination index (DI) for the FPS session: one-way ANOVA ACSF/OT/OTA; for total discrimination index (DI) for the FPS session: all trials, P=0.1492; for discrimination between cued and non-cued fear (summary statement): infused into the BNSTdl before fear conditioning, FPS; for TREATMENT effect on cued fear (percent change), negative controls: injection sites outside the BNST, P=0.3990; for discrimination index over four time blocks, negative controls: injection sites outside the BNSTdl, P=0.5828; for discrimination index over four time blocks, negative controls / startle amplitude, light-noise vs noise-alone trials: effect of TREATMENT: two-way repeated measures ANOVA; for mean shock reactivity during the fear conditioning session / TREATMENT effect on percentage change of contextual fear / TREATMENT effect on percentage change of non-cued fear / startle amplitude, light-noise vs noise-alone trials: effect of TREATMENT: intra-BNSTdl ACSF, OT 100 ng, OTA 200 ng; for mean shock reactivity during the fear conditioning session: P=0.8684; for TREATMENT effect on percentage change of contextual fear: context A, day 5; for TREATMENT effect on percentage change of non-cued fear: context B, P=0.8993; for startle amplitude, light-noise vs noise-alone trials: effect of TREATMENT: P=0.8478
Protocol: A total of 75 rats were used for FPS experiments. The ACSF-treated group consisted of 23 rats, whereas there were 14 OT and 16 OTR antagonist (OTA)-treated rats included in the main analysis. […] These rats were analyzed as negative controls.
Stereotaxic surgery technique was identical to above except that guide cannulas were implanted bilaterally instead of a microdialysis probe (Moaddab and Dabrowska, 2017).
OT (100 ng), OTA (200 ng), or ACSF (all in volume of 0.5 μl per side) was injected bilaterally into the BNSTdl through a microinjector (28-gauge, 7 mm length; Plastics One, Roanoke, Va.) as described before (Moaddab and Dabrowska, 2017). Doses of OT and OTA were chosen based on previous studies on fear and anxiety in rats (Bale et al., 2001; Toth et al., 2012; Lahoud and Maroun, 2013; Neumann and Slattery, 2016; Moaddab and Dabrowska, 2017). Rats were assigned based on a second pre-test ASR into three treatment groups. Fear conditioning sessions were performed 10 min after the intra-BNSTdl injections.
FPS procedures were modified based on previous studies and according to protocol described in detail before (Walker et al., 2009; Missig et al., 2010; Ayers et al., 2011; Moaddab and Dabrowska, 2017). On days 1 and 2, rats underwent two pre-test sessions. On day 3 (fear conditioning), animals were placed in cylindrical enclosures containing a grid floor conveying foot shocks (as above). After 5 min acclimation, animals received 10 presentations of a 3.7 s cue light (CS), each co-terminating with a 0.5 s foot shock (US; 0.5 mA, inter-trial-interval 60-180 s). Background noise was absent during the conditioning session. Enclosures and chambers were cleaned with PREempt RTU disinfectant solution (Virox Technologies, Oakville, Canada) before and after each fear […] conditioning session (context A). Twenty-four hours later, on day 4, rats were tested for FPS expression (recall test) in context B. After 5 min of acclimation, they were exposed to 50 startle-eliciting WNBs (as above) and levels of cued and non-cued fear were measured. A background white noise of 70 dB continuously played throughout the session. The session consisted of 10 baseline startle trials (excluded from the analysis) followed by an additional 40 trials, with half presented in the presence of the cue light (CS+, light-noise) and the other half without the CS (CS-, noise-alone) in a pseudorandom order (inter-trial-interval 30 s). To make context A distinct from context B, enclosures and chambers were cleaned with 70% ethanol before and after the […] (different than in fear conditioning). The grid floor was also removed from the enclosures during cued FPS testing. In addition, a different experimenter from the training session performed the FPS testing session. On day 5, the same rats were tested for contextual fear recall in context A, where after 10 baseline startle trials (excluded from the analysis), startle amplitude was measured during 40 additional CS− trials (noise-alone, inter-trial-interval 30 s, FIG. 5, C).
Startle amplitude was defined as the maximum peak voltage within the first 200 ms after onset of the WNB. Shock reactivity amplitude was recorded during the fear conditioning session and was defined as the maximum peak voltage that occurred during the 500 ms foot shock delivery. Cued, non-cued, and contextual fear, were calculated as percent change scores of startle amplitude based on previous FPS studies (Walker et al., 2009; Missig et al., 2010; Ayers et al., 2011; Moaddab and Dabrowska, 2017).

Compound: CC[C@H](C)[C@@H]1NC(=O)[C@H](Cc2ccc(O)cc2)NC(=O)[C@@H](N)CSSC[C@@H](C(=O)N2CCC[C@H]2C(=O)N[C@@H](CC(C)C)C(=O)NCC(N)=O)NC(=O)[C@H](CC(N)=O)NC(=O)[C@H](CCC(N)=O)NC1=O [OT, OT acetate salt]
- discrimination index in the fourth time block of fear memory recall, vs ACSF-treated group (OT 100 ng intra-BNSTdl, Bonferroni post hoc, P=0.0121): significant differences in the discrimination indices
- TREATMENT effect on cued fear (percentage change of startle amplitude): a trend in the TREATMENT effect on cued fear
- total discrimination index (DI) for the FPS session: not significantly different
- discrimination between cued and non-cued fear (summary statement): significantly increases discrimination between cued and non-cued fear
- TREATMENT effect on cued fear (percent change), negative controls: no significant effect of TREATMENT on cued fear
- discrimination index over four time blocks, negative controls: no significant main effect of TREATMENT
- mean shock reactivity during the fear conditioning session: not different
- TREATMENT effect on percentage change of contextual fear: no TREATMENT effect
- TREATMENT effect on percentage change of non-cued fear: no TREATMENT effect
- startle amplitude, light-noise vs noise-alone trials: effect of TREATMENT: no main effect of TREATMENT

Compound: (d(CH2)5^1, D-Tyr^2, Thr4, Orn8, des-Gly-NH2 9)-vasotocin trifluoroacetate salt [OTA]
- TREATMENT effect on cued fear (percentage change of startle amplitude): a trend in the TREATMENT effect on cued fear
- discrimination index in the fourth time block of fear memory recall, OT vs OTA-treated groups (OT 100 ng vs OTA 200 ng intra-BNSTdl, Bonferroni post hoc, P=0.0007): significant differences in the discrimination indices
- OTA effect on cued fear vs ACSF (OTA 200 ng intra-BNSTdl, un-paired t-test vs ACSF, P=0.0763): a trend in the OTA effect on cued fear
- total discrimination index (DI) for the FPS session: not significantly different
- discrimination between cued and non-cued fear (summary statement): disables this discrimination
- TREATMENT effect on cued fear (percent change), negative controls: no significant effect of TREATMENT on cued fear
- discrimination index over four time blocks, negative controls: no significant main effect of TREATMENT
- mean shock reactivity during the fear conditioning session: not different
- TREATMENT effect on percentage change of contextual fear: no TREATMENT effect
- TREATMENT effect on percentage change of non-cued fear: no TREATMENT effect
- startle amplitude, light-noise vs noise-alone trials: effect of TREATMENT: no main effect of TREATMENT
